40 compounds from US12685312B2, “Sulfonamide apyrase inhibitors” (Texas Crop Science, Inc., priority 2022, dated 2026) can be followed below.

The assay has as its system apyrase. The assay is described as follows: Screen for apyrase inhibitors (Method 1, in vitro phosphate-release absorbance assay). In kind it is biochemical. The following applies: inhibitor conc at 1 mM stock, 1 hr room temperature, absorbance 630 nm; rounded average of two assay results. A digest of the protocol:
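Phosphate-release colorimetric assay (Windsor method) in 60 mM Hepes, 3 mM MgCl2, 3 mM CaCl2, 3 mM ATP, pH 6.5, with compound or DMSO control added. Released phosphate developed with ammonium molybdate and ascorbic acid/TCA, then stopped with citrate/acetic acid.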
Turning to `CC1Cc2ccccc2N1S(=O)(=O)c1cccc(C(=O)Nc2ccccc2C(C)(C)C)c1` (stereo not shown) [I-534, N-(2-(tert-butyl)phenyl)-3-((2-methylindolin-1-yl)sulfonyl)benzamide], the “% Inhibition of Apyrase” value worked out at 54%.

Regarding `Cc1ccc(NC(=O)c2cccc(S(=O)(=O)Nc3ccc(Br)cc3)c2)cc1S(=O)(=O)N1CCOCC1` [I-273, 3-(N-(4-bromophenyl)sulfamoyl)-N-(4-methyl-3-(morpholinosulfonyl)phenyl)benzamide], the “% Inhibition of Apyrase” value is listed as 52%.

For `O=C(Nc1ccc(Br)cc1)c1cccc(S(=O)(=O)Nc2cccc(C(F)(F)F)c2)c1` [I-250, N-(4-bromophenyl)-3-(N-(3-(trifluoromethyl)phenyl)sulfamoyl)benzamide], the “% Inhibition of Apyrase” value is 63%.

Turning to `Cc1ccc(NC(=O)c2cccc(NS(=O)(=O)c3cccs3)c2)cc1C` [I-636, N-(3,4-dimethylphenyl)-3-(thiophene-2-sulfonamido)benzamide], the “% Inhibition of Apyrase” value is 58%.

Turning to `O=C1Cc2cc(S(=O)(=O)Nc3ccccc3NC(=O)c3ccc(Cl)cc3)ccc2N1` [I-843, 4-chloro-N-(2-((2-oxoindoline)-5-sulfonamido)phenyl)benzamide], the “% Inhibition of Apyrase” value was determined as 5%.

On to `CC1Cc2ccccc2N1S(=O)(=O)c1cccc(C(=O)Nc2ccc3c(c2)OCCO3)c1` (stereo not shown) [I-536, N-(2,3-dihydrobenzo[b][1,4]dioxin-6-yl)-3-((2-methylindolin-1-yl)sulfonyl)benzamide], for which the “% Inhibition of Apyrase” value is listed as 54%.

`Cc1ccc(F)cc1S(=O)(=O)Nc1cccc(C(=O)Nc2cccc(C#N)c2)c1` [I-318, N-(3-cyanophenyl)-3-((5-fluoro-2-methylphenyl)sulfonamido)benzamide]: the “% Inhibition of Apyrase” value is 68%.

Take `COc1ccccc1NS(=O)(=O)c1cccc(C(=O)Nc2cccc([N+](=O)[O-])c2)c1` [I-268, 3-(N-(2-methoxyphenyl)sulfamoyl)-N-(3-nitrophenyl)benzamide]: the “% Inhibition of Apyrase” value came to 58%.

As for `COc1ccc2c(c1)CCCN2C(=O)c1ccc(S(=O)(=O)N2CCCc3ccccc32)cc1` [I-866, (4-((3,4-dihydroquinolin-1(2H)-yl)sulfonyl)phenyl)(6-methoxy-3,4-dihydroquinolin-1(2H)-yl)methanone], the “% Inhibition of Apyrase” value amounted to 58%.

As for `Cc1ccc(C(=O)Nc2cccc(C(=O)O)c2)cc1S(=O)(=O)Nc1ccc(Br)cc1` [I-35, 3-(3-(N-(4-bromophenyl)sulfamoyl)-4-methylbenzamido)benzoic acid], the “% Inhibition of Apyrase” value was determined as 17%.

As to `O=C(Nc1ccc(F)cc1)c1ccc(Cl)c(S(=O)(=O)N2CCc3ccccc32)c1` [I-513, 4-chloro-N-(4-fluorophenyl)-3-(indolin-1-ylsulfonyl)benzamide], the “% Inhibition of Apyrase” value is 56%.

On to `Cc1cnc(C(=O)Nc2cccc(S(=O)(=O)Nc3cccc(C(F)(F)F)c3)c2)cn1` [I-769, 5-methyl-N-(3-(N-(3-(trifluoromethyl)phenyl)sulfamoyl)phenyl) pyrazine-2-carboxamide], for which the “% Inhibition of Apyrase” value is 7%.

`CCOc1ccc(NC(=O)c2cc(S(=O)(=O)N3CCc4ccccc43)ccc2OC)cc1` [I-581, N-(4-ethoxyphenyl)-5-(indolin-1-ylsulfonyl)-2-methoxybenzamide]: the “% Inhibition of Apyrase” value is on record as 47%.

`COc1ccc(Cl)cc1NS(=O)(=O)c1cccc(C(=O)N2CCc3ccccc32)c1` [I-520, N-(5-chloro-2-methoxyphenyl)-3-(indoline-1-carbonyl)benzenesulfonamide]: the “% Inhibition of Apyrase” value is on record as 56%.

As for `Cc1ccc(S(=O)(=O)Nc2cccc(NC(=O)c3ccc4c(c3)OCCO4)c2)cc1C` [I-227, N-(3-((3,4-dimethylphenyl)sulfonamido)phenyl)-2,3-dihydrobenzo[b][1,4]dioxine-6-carboxamide], the “% Inhibition of Apyrase” value came to 71%.

Turning to `O=C(Nc1ccccc1N1CCOCC1)c1cccc(S(=O)(=O)N2CCc3ccccc32)c1` [I-585, 3-(indolin-1-ylsulfonyl)-N-(2-morpholinophenyl)benzamide], the “% Inhibition of Apyrase” value was 45%.

Take `COc1cc(C(=O)Nc2cccc(S(=O)(=O)N(C)c3ccccc3)c2)ncn1` [I-753, 6-methoxy-N-(3-(N-methyl-N-phenylsulfamoyl)phenyl)pyrimidine-4-carboxamide]: the “% Inhibition of Apyrase” value is reported as 37%.

As to `N#CCc1ccc(NC(=O)c2cccc(S(=O)(=O)Nc3ccc4c(c3)OCO4)c2)cc1` [I-274, 3-(N-(benzo[d][1,3]dioxol-5-yl)sulfamoyl)-N-(4-(cyanomethyl)phenyl)benzamide], the “% Inhibition of Apyrase” value is 48%.

As to `O=C(c1cccc(S(=O)(=O)Nc2cccc(Cl)c2)c1)N1CCc2ccccc21` [I-542, N-(3-chlorophenyl)-3-(indoline-1-carbonyl)benzenesulfonamide], the “% Inhibition of Apyrase” value was determined as 54%.

With `O=C(c1cc(S(=O)(=O)Nc2cccc(C(F)(F)F)c2)ccc1Cl)N1CCCc2ccccc21` [I-474, 4-chloro-3-(1,2,3,4-tetrahydroquinoline-1-carbonyl)-N-(3-(trifluoromethyl)phenyl)benzenesulfonamide], the “% Inhibition of Apyrase” value is reported as 59%.

As for `O=C(Nc1ccc(N2CCOCC2)cc1)c1cccc(S(=O)(=O)Nc2ccc3c(c2)OCO3)c1` [I-283, 3-(N-(benzo[d][1,3]dioxol-5-yl)sulfamoyl)-N-(4-morpholinophenyl)benzamide], the “% Inhibition of Apyrase” value turned out to be 29%.

For `N#Cc1cccc(NC(=O)c2ccc(NS(=O)(=O)c3ccc(F)cc3)cc2)c1` [I-957, N-(3-cyanophenyl)-4-((4-fluorophenyl)sulfonamido)benzamide], the “% Inhibition of Apyrase” value is recorded as 20%.

As for `CCOc1ccc(NC(=O)c2cccc(S(=O)(=O)Nc3ccc4c(c3)OCO4)c2)cc1OC` [I-586, 3-(N-(benzo[d][1,3]dioxol-5-yl)sulfamoyl)-N-(4-ethoxy-3-methoxyphenyl)benzamide], the “% Inhibition of Apyrase” value was 44%.

For `O=C(Nc1cccc(Cl)c1)c1cccc(NS(=O)(=O)c2cccs2)c1` [I-631, N-(3-chlorophenyl)-3-(thiophene-2-sulfonamido)benzamide], the “% Inhibition of Apyrase” value is given as 62%.

As for `COc1ccc([N+](=O)[O-])cc1NS(=O)(=O)c1ccc(C(=O)N2CCc3ccccc32)cc1` [I-892, 4-(indoline-1-carbonyl)-N-(2-methoxy-5-nitrophenyl)benzenesulfonamide], the “% Inhibition of Apyrase” value stood at 29%.

In the case of `O=C(Nc1cccc([N+](=O)[O-])c1)c1cccc(S(=O)(=O)Nc2cc(C(F)(F)F)ccc2Cl)c1` [I-3, 3-(N-(2-chloro-5-(trifluoromethyl)phenyl)sulfamoyl)-N-(3-nitrophenyl)benzamide], the “% Inhibition of Apyrase” value was 73%.

With `COc1ccc2c(c1)CCCN2C(=O)c1ccc(S(=O)(=O)Nc2ccccc2)cc1` [I-871, 4-(6-methoxy-1,2,3,4-tetrahydroquinoline-1-carbonyl)-N-phenylbenzenesulfonamide], the “% Inhibition of Apyrase” value is reported as 56%.

As for `COc1ccccc1NS(=O)(=O)c1ccc(C(=O)Nc2cccc(C(F)(F)F)c2)cc1` [I-410, 4-(N-(2-methoxyphenyl)sulfamoyl)-N-(3-(trifluoromethyl)phenyl)benzamide], the “% Inhibition of Apyrase” value is listed as 29%.

Turning to `COc1ccc(NS(=O)(=O)c2ccc(C(=O)Nc3cccc(C(C)=O)c3)cc2)cc1` [I-413, N-(3-acetylphenyl)-4-(N-(4-methoxyphenyl)sulfamoyl)benzamide], the “% Inhibition of Apyrase” value is 16%.

As for `COc1ccc(NS(=O)(=O)c2cccc(NC(=O)c3[nH]c(C)c(C(C)=O)c3C)c2)cc1` [I-727, 4-acetyl-N-(3-(N-(4-methoxyphenyl)sulfamoyl)phenyl)-3,5-dimethyl-1H-pyrrole-2-carboxamide], the “% Inhibition of Apyrase” value stood at 56%.

Consider `Cc1ccc(C(=O)Nc2ccc([N+](=O)[O-])cc2)cc1S(=O)(=O)Nc1ccc(Br)cc1` [I-6, 3-(N-(4-bromophenyl)sulfamoyl)-4-methyl-N-(4-nitrophenyl)benzamide], for which the “% Inhibition of Apyrase” value is 69%.

As for `COc1ccc(NS(=O)(=O)c2cccc(NC(=O)c3cccs3)c2)cc1` [I-771, N-(3-(N-(4-methoxyphenyl)sulfamoyl)phenyl)thiophene-2-carboxamide], the “% Inhibition of Apyrase” value stood at 6%.

Consider `O=C1Cc2cccc(NS(=O)(=O)c3ccc(Br)cc3)c2N1` [I-812, 4-bromo-N-(2-oxoindolin-7-yl)benzenesulfonamide], for which the “% Inhibition of Apyrase” value turned out to be 54%.

With `COc1ccc2c(c1)CCCN2C(=O)c1cccc(S(=O)(=O)N2CCc3ccccc32)c1` [I-509, (3-(indolin-1-ylsulfonyl)phenyl)(6-methoxy-3,4-dihydroquinolin-1(2H)-yl)methanone], the “% Inhibition of Apyrase” value stood at 56%.

For the compound `CC(=O)c1ccccc1NC(=O)c1cccc(S(=O)(=O)N2c3ccccc3CC2C)c1` (stereo not shown) [I-610, N-(2-acetylphenyl)-3-((2-methylindolin-1-yl)sulfonyl)benzamide], the “% Inhibition of Apyrase” value stood at 4%.

Regarding `Cc1cccc(NS(=O)(=O)c2cc(C(=O)Nc3cccc(C#N)c3)c(Cl)cc2Cl)c1` [I-560, 2,4-dichloro-N-(3-cyanophenyl)-5-(N-(m-tolyl)sulfamoyl)benzamide], the “% Inhibition of Apyrase” value turned out to be 52%.

With `NC(=O)c1cccc(NC(=O)c2cccc(S(=O)(=O)N3CCc4ccccc43)c2)c1` [I-456, N-(3-carbamoylphenyl)-3-(indolin-1-ylsulfonyl)benzamide], the “% Inhibition of Apyrase” value came to 60%.

As for `O=C(Nc1ccccc1NS(=O)(=O)c1ccc(F)cc1)c1ccc(Cl)cc1` [I-839, 4-chloro-N-(2-((4-fluorophenyl)sulfonamido)phenyl)benzamide], the “% Inhibition of Apyrase” value was found to be 23%.

With `COc1ccc(C(=O)Nc2cccc(S(=O)(=O)Nc3ccc(Br)cc3)c2)cc1OC` [I-333, N-(3-(N-(4-bromophenyl)sulfamoyl)phenyl)-3,4-dimethoxybenzamide], the “% Inhibition of Apyrase” value is reported as 48%.

In the case of `O=C(Nc1ccc(F)cc1)c1ccc(NS(=O)(=O)c2ccc(Cl)c([N+](=O)[O-])c2)cc1` [I-902, 4-((4-chloro-3-nitrophenyl)sulfonamido)-N-(4-fluorophenyl)benzamide], the “% Inhibition of Apyrase” value amounted to 64%.
